Patent US10005767B2, “Compositions and methods for inhibition of the JAK pathway” (Rigel Pharmaceuticals, Inc., priority 2009, dated 2018)

What follows are compounds tested on human primary T-cells, IL-2 stimulated proliferation (JAK-1 and JAK-3 dependent; reported as JAK3 activity) (assay: Human primary T-cell proliferation stimulated by IL-2 (Example 3)). Details: Homo sapiens, T-cell, tested under conditions described in Example 3 (IL-2 stimulated human primary T-cell proliferation); read-out: ability to inhibit JAK3 activity, IC50 range (Table V).
Type: cell-based
Method in brief: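 Peripheral-blood human T-cells pre-activated via TCR/CD28, IL-2-starved overnight, then cultured 72 h at 37 °C with compound in Yssel's medium containing IL-2 (80 U/mL in cell suspension). Proliferation read as viable-cell ATP by CellTiter-Glo luminescence; reduction versus control taken as JAK pathway inhibition.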

Cc1cnc(Nc2ccc3c(c2)NC(=O)CCC3)nc1Nc1ccc2oc(=O)[nH]c2c1 [IV-23, 5-(5-methyl-2-(2-oxo-2,3,4,5-tetrahydro-1H-benzo[b]azepin-8-ylamino)pyrimidin-4-ylamino)benzo[d]oxazol-2(3H)-one] and Cc1cnc(Nc2ccc3c(c2)NS(=O)(=O)CO3)nc1Nc1ccc2oc(=O)[nH]c2c1 [IV-16, 5-[2-(2,2-Dioxo-1H-benzo[e][1,3,4]oxathiazin-7-ylamino)-5-methyl-pyrimidin-4-ylamino]-3H-benzooxazol-2-one] cannot be ordered by IC50: less than 0.5 µM for the first, less than 0.5 µM for the second.

Going from Cc1cnc(Nc2ccc(F)cc2F)nc1Nc1ccc2oc(=O)[nH]c2c1 [Compound I-456, 5-[2-(2,4-Difluoro-phenylamino)-5-methyl-pyrimidin-4-ylamino]-3H-benzooxazol-2-one] to Cc1cnc(Nc2c(F)cc(F)cc2F)nc1Nc1ccc2oc(=O)[nH]c2c1 [IV-59, 5-[5-Methyl-2-(2,4,6-trifluoro-phenylamino)-pyrimidin-4-ylamino]-3H-benzooxazol-2-one], the IC50 rises from less than 0.5 µM to greater than 10 µM. The first is the more potent here.

First: Cc1cnc(Nc2cc(Br)cc(C(F)(F)F)c2)nc1Nc1ccc2oc(=O)[nH]c2c1 [Compound I-189, 5-[2-(3-Bromo-5-trifluoromethyl-phenylamino)-5-methyl-pyrimidin-4-ylamino]-3H-benzooxazol-2-one]
Second: Cc1cnc(Nc2cc(OC3CCC3)cc(C(F)(F)F)c2)nc1Nc1ccc2oc(=O)[nH]c2c1 [Compound I-226, 5-(2-(3-cyclobutoxy-5-(trifluoromethyl)phenylamino)-5-methylpyrimidin-4-ylamino)benzo[d]oxazol-2(3H)-one]
The IC50 of the first is lower: less than 0.5 µM for the first, 0.5 to 5 µM for the second.

Compared with Cc1cnc(Nc2ccc(N3CCNCC3)nc2)nc1Nc1ccc2oc(=O)[nH]c2c1 [II-10, N4-(benzo[d]oxazol-2(3H)-on-5-yl)-N2-(6-(piperazin-1-yl)pyridin-3-yl)-5-methylpyrimidine-2,4-diamine], Cc1cnc(Nc2ccnc(N3CCNCC3)c2)nc1Nc1ccc2oc(=O)[nH]c2c1 [IV-7, N4-(benzo[d]oxazol-2(3H)-on-5-yl)-N2-[2-(piperazino)pyridin-4-yl]-5-methylpyrimidine-2,4-diamine] is higher in IC50: less than 0.5 µM for the first, 5 to 10 µM for the second. The first is the more potent here.

First: Cc1cnc(Nc2cc(O)c3ccccc3c2)nc1Nc1ccc2oc(=O)[nH]c2c1 [IV-56, 5-[2-(4-Hydroxy-naphthalen-2-ylamino)-5-methyl-pyrimidin-4-ylamino]-3H-benzooxazol-2-one]
Second: CNC(=O)c1ccc(Nc2ncc(C)c(Nc3ccc4oc(=O)[nH]c4c3)n2)cc1 [Compound I-133, N-Methyl-4-[5-methyl-4-(2-oxo-2,3-dihydro-benzooxazol-5-ylamino)-pyrimidin-2-ylamino]-benzamide]
The IC50 of the first is higher: 5 to 10 µM for the first, less than 0.5 µM for the second.

CCN(CC)CCOc1ccc(Nc2ncc(C)c(Nc3ccc4oc(=O)[nH]c4c3)n2)cc1 [Compound I-449, 5-{2-[4-(2-Diethylamino-ethoxy)-phenylamino]-5-methyl-pyrimidin-4-ylamino}-3H-benzooxazol-2-one] and COc1ncc(Nc2ncc(C)c(Nc3ccc4oc(=O)[nH]c4c3)n2)cc1C [II-141, N2-(2-methoxy-3-methylpyridin-5-yl)-5-methyl-N4-(2-oxo-2,3-dihydro-1,3-benzoxazol-5-yl)-2,4-pyrimidinediamine] cannot be ordered by IC50: less than 0.5 µM for the first, less than 0.5 µM for the second.

Cc1cnc(Nc2ccc(N3C[C@@H](C)N[C@@H](C)C3)nc2)nc1Nc1ccc2oc(=O)[nH]c2c1 [II-131, N2-[2-(cis-3,5-dimethylpiperazino)pyridin-5-yl]-5-methyl-N4-(2-oxo-2,3-dihydro-1,3-benzoxazol-5-yl)-2,4-pyrimidinediamine] and COC(=O)N1CCN(c2ccc(Nc3ncc(C)c(Nc4ccc5oc(=O)[nH]c5c4)n3)cn2)CC1 [II-9, N4-(benzo[d]oxazol-2(3H)-on-5-yl)-N2-(6-(4-methoxycarbonylpiperazin-1-yl)pyridin-3-yl)-5-methylpyrimidine-2,4-diamine] cannot be ordered by IC50: less than 0.5 µM for the first, less than 0.5 µM for the second.

Cc1cnc(Nc2cnc(N3CC4CC3CN4CC3CC3)c(F)c2)nc1Nc1ccc2oc(=O)[nH]c2c1 (stereo not shown) [II-54, 5-{2-[6-(5-Cyclopropylmethyl-2,5-diaza-bicyclo[2.2.1]hept-2-yl)-5-fluoro-pyridin-3-ylamino]-5-methyl-pyrimidin-4-ylamino}-3H-benzooxazol-2-one] and Cc1cnc(Nc2ccc(C(=O)NC3CCC3)nc2)nc1Nc1ccc2oc(=O)[nH]c2c1 [II-151, 5-[5-Methyl-4-(2-oxo-2,3-dihydro-benzooxazol-5-ylamino)-pyrimidin-2-ylamino]-pyridine-2-carboxylic acid cyclobutylamide] cannot be ordered by IC50: less than 0.5 µM for the first, less than 0.5 µM for the second.

Cc1cnc(Nc2cccc(C(=O)N3CCOCC3)c2)nc1Nc1ccc2oc(=O)[nH]c2c1 [Compound I-256, 5-(5-methyl-2-(3-(morpholine-4-carbonyl)phenylamino)pyrimidin-4-ylamino)benzo[d]oxazol-2(3H)-one] and COCCN1C(=O)COc2cc(Nc3ncc(C)c(Nc4ccc5oc(=O)[nH]c5c4)n3)ccc21 [IV-44, N2-[4-(2-methoxyethyl)-2H-1,4-benzoxazin-3 (4H)-one-7-yl]-5-methyl-N4-(2-oxo-2,3-dihydro-1,3-benzoxazol-5-yl)-2,4-pyrimidinediamine] cannot be ordered by IC50: less than 0.5 µM for the first, less than 0.5 µM for the second.

Same assay, conditions: tested under conditions described in Example 3 (IL-2 stimulated human primary T-cell proliferation); read-out: ability to inhibit JAK3 activity, IC50 range (Table V)

Cc1cnc(Nc2ccc(N(C)S(C)(=O)=O)cc2)nc1Nc1ccc2c(c1)oc(=O)n2C [Compound I-95, N2-((4-methylsulfonyl-N-methylamino)phenyl)-N4-(3-methyl-2-oxo-2,3-dihydrobenzo[d]oxazol-6-yl)-5-methylpyrimidine-2,4-diamine] and Cc1cnc(Nc2ccc(S(N)(=O)=O)cc2)nc1Nc1ccc2oc(=O)n(C)c2c1 [Compound I-68, N2-((4-aminosulfonyl)phenyl)-N4-(3-methyl-2-oxo-2,3-dihydrobenzo[d]oxazol-5-yl)-5-methylpyrimidine-2,4-diamine] cannot be ordered by IC50: less than 0.5 µM for the first, less than 0.5 µM for the second.

COc1cc(Nc2ncc(C)c(Nc3ccc4oc(=O)[nH]c4c3)n2)ccc1C(F)(F)F [Compound I-354, N2-(3-methoxy-4-trifluoromethyl)phenyl-5-methyl-N4-(2-oxo-2,3-dihydro-1,3-benzoxazol-5-yl)-2,4-pyrimidinediamine] and Cc1cnc(Nc2cccc(-c3cnco3)c2)nc1Nc1ccc2oc(=O)[nH]c2c1 [Compound I-286, 5-methyl-N2-[3-(1,3-oxazol-5-yl)]phenyl-N4-(2-oxo-2,3-dihydro-1,3-benzoxazol-5-yl)-2,4-pyrimidinediamine] cannot be ordered by IC50: less than 0.5 µM for the first, less than 0.5 µM for the second.

Cc1cnc(Nc2cccc(S(N)(=O)=O)c2)nc1Nc1ccc2c(c1)n(C)c(=O)n2C [Compound I-34, N4-(1,3-dimethylbenzimidazolin-2-on-5-yl)-N2-((3-aminosulfonyl)phenyl)-5-methylpyrimidine-2,4-diamine] and Cc1cnc(Nc2cccc(N3CCOCC3)c2)nc1Nc1ccc2[nH]c(=O)oc2c1 [Compound I-48, N4-(benzo[d]oxazol-2(3H)-on-6-yl)-N2-((3-morpholinyl)phenyl)-5-methylpyrimidine-2,4-diamine] cannot be ordered by IC50: less than 0.5 µM for the first, less than 0.5 µM for the second.

Compound Cc1cnc(Nc2cnc(N3CCN4CCC[C@H]4C3)c(C(F)(F)F)c2)nc1Nc1ccc2oc(=O)[nH]c2c1 [II-124, N2-[2-(S-1,4-diazabicylco[4.3.0]nonan-4-yl)-3-trifluoromethylpyridin-5-yl]-5-methyl-N4-(2-oxo-2,3-dihydro-1,3-benzoxazol-5-yl)-2,4-pyrimidinediamine] has an IC50 of less than 0.5 µM.
